In US12031170B2, “System for improved production titers in fermentations” (DANMARKS TEKNISKE UNIVERSITET, priority 2015, dated 2024):

What was measured:
Assay type in all cases: cell-based
[1] = system: E. coli control strain e3.16CON; test: Toxicity of triacetic acid lactone to non-addicted control strain, growth in microtiter plate
Procedure: A non-addicted control E. coli strain (e3.16CON), also equipped with spectinomycin and kanamycin resistance genes, but with wildtype control of folP-glmM expression (Table 9), was constructed in order to test the toxicity of triacetic acid lactone.
The non-addicted control E. coli strain (e3.16CON), and a selected addicted strain (e3.16#5) were then tested and compared for triacetic acid lactone-dependent growth by cultivation in a microtiter plate reader in liquid 2xYT medium supplemented with spectinomycin and kanamycin and a three-step gradient of triacetic acid lactone (0, 2 and 20 mM). […] The observed growth depression was greatest at a concentration of 20 mM triacetic acid lactone.

[2] = system: E. coli strain e3.16#5; test: Triacetic acid lactone-dependent growth of addicted strain
Description: The native single genomic copy of the essential gene operon folP-glmM in the E. coli XL1 host strain was modified to allow its transcriptional control by the triacetic acid lactone-responsive promoter pBAD. First, a gene encoding a triacetic acid lactone biosensor (AraCtal (Tang et al., 2013)) was introduced into the XL1 host strain on the plasmid pBALspec (Table 8). Then, replacement of the native folP-glmM promoter in this host strain by the pBAD promoter was engineered by means of lambda red-mediated recombineering. Recombineering was performed using well-described methods utilizing the pKD46 plasmid (Datsenko and Wanner, 2000), but instead of gene disruption, a specific set of knock-out DNA fragments (produced by PCR) was used to only replace the native essential folP-glmM operon promoter and folP ribosomal binding site (RBS). This set of knockout DNA fragments each contained a kanamycin resistance cassette and the pBAD promoter, as illustrated in the cartoon in FIG. 8. The nucleotide sequence of the set of gene knockout DNA fragments differed only with respect to the redundant nucleotide (“N”, wherein “N” is any of A, T, G or C) in the RBS sequence (ACTTGC) for folP-glmM, which generated a four-membered library of folP translational strengths.
For recombineering, as performed in standard pKD46 protocols, the target strain was first transformed with pKD46, and a single colony of this strain was then cultured in a 25 mL 2xYT culture at 30 degrees C. and 250 rpm horizontal shaking. When the culture reached OD600=0.1, the lambda Red system of pKD46 was induced by addition of 0.2 vol % L-arabinose, and then further cultured to grow to OD600=0.4. […]
The non-addicted control E. coli strain (e3.16CON), and a selected addicted strain (e3.16#5) were then tested and compared for triacetic acid lactone-dependent growth by cultivation in a microtiter plate reader in liquid 2xYT medium supplemented with spectinomycin and kanamycin and a three-step gradient of triacetic acid lactone (0, 2 and 20 mM). […]

[3] = system: E. coli with mevalonate biosensor TA plasmid (pBAM-TA5); conditions: 37 mM mevalonate added; no IPTG
[4] = system: E. coli strain e3.18#1; test: Salicylic acid-dependent growth of addicted strain; conditions: 5 mM salicylic acid
Description: The native single genomic copy of the essential gene operon folP-glmM in the E. coli XL1 host strain was modified to allow its transcriptional control by the salicylic acid-responsive promoter pSAL [SEQ ID No:118]. First, a gene encoding a salicylic acid biosensor (Pseudomonas putida nahR_Asn169 (Cebolla et al., 1997)) was introduced into the XL1 host strain on the plasmid pBANspec (Table 10). Then, replacement of the native folP-glmM promoter by the pSAL promoter was engineered by means of lambda red-mediated recombineering.
Recombineering was performed as described in section 2.3 using well-described methods utilizing the pKD46 plasmid (Datsenko and Wanner, 2000). Instead of gene disruption, a specific set of knock-out DNA fragments was used to only replace the native essential folP-glmM operon promoter and folP RBS. […]
(§1) A selected addicted strain (e3.18#1) and the non-addicted control E. coli strain (e3.18CON) were then tested for salicylic acid dependent growth by cultivation in a microtiter plate reader in liquid 2xYT medium supplemented with spectinomycin and kanamycin and presence/absence of salicylic acid (0 or 5 mM). […]

[5] = system: E. coli control strain e3.18CON; test: Toxicity of salicylic acid to non-addicted control strain, growth in microtiter plate; conditions: 2xYT, 5 mM salicylic acid, 37 deg. C.
Procedure: Recombineering was performed as described in section 2.3 using well-described methods utilizing the pKD46 plasmid (Datsenko and Wanner, 2000). Instead of gene disruption, a specific set of knock-out DNA fragments was used to only replace the native essential folP-glmM operon promoter and folP RBS. This set of knockout DNA fragments contained a kanamycin resistance cassette and the pSAL promoter, as illustrated in the cartoon in FIG. 8, as well as a redundant nucleotide (“N”, wherein “N” is any of A, T , G or C) in the RBS for folP-glmM to generate a four-membered library of folP translational strengths. This library allows selection of a translational strength for folP that suits the transcriptional regulation by the biosensor. Finally, candidate recombineered cells were selected for by plating on LB agar plates supplemented with 5 mM salicylic acid and spectinomycin for maintenance of pBANspec; and kanamycin for selection of inserted knockout fragment. […]
as §1

[6] = system: E. coli control strain e3.22CON; test: Toxicity of benzoic acid to non-addicted control strain, growth in microtiter plate; conditions: 2xYT, 5 mM benzoic acid, 37 deg. C.
Procedure: A non-addicted control E. coli strain (e3.22CON), also equipped with spectinomycin and kanamycin resistance genes, but wild-type control of folP-glmM expression (Table 13), was constructed in order to test the toxicity of benzoic acid.
A selected addicted strain (e3.22#4) and the non-addicted control E. coli strain (e3.18CON) were then tested for benzoic acid dependent growth by cultivation in a microtiter plate reader in liquid 2xYT medium supplemented with spectinomycin and kanamycin and w/wo salicylic acid (0 or 5 mM). […] In contrast to the control strain, the growth rate and final biomass yield of the addicted strain e3.18#1 was enhanced by supplementation with benzoic acid with a growth rate higher than otherwise expected for non-addicted strains (FIG. 16).

[7] = system: E. coli strain e3.22#4; test: Benzoic acid-dependent growth of addicted strain; conditions: 5 mM benzoic acid
Description: The native single genomic copy of the essential gene operon folP-glmM in the E. coli XL1 host strain was modified to allow its transcriptional control by the benzoic acid-responsive promoter pSAL [SEQ ID No:118]. First, a gene encoding a benzoic acid biosensor (Pseudomonas putida nahR) (Table 12) was introduced into the XL1 host strain on the plasmid pBABspec. Then, replacement of the native folP-glmM promoter by the pSAL promoter was engineered by means of lambda red-mediated recombineering.
Recombineering was performed as described in section 2.3 using well-described methods utilizing the pKD46 plasmid (Datsenko and Wanner, 2000)). Instead of gene disruption, a specific set of knock-out DNA fragments was used to only replace the native essential folP-glmM operon promoter and folP RBS. This set of knockout DNA fragments contained a kanamycin resistance cassette and the pSAL promoter, as illustrated in the cartoon in FIG. 8, as well as a redundant nucleotide (“N”, wherein “N” is any of A, T , G or C) in the RBS for folP-glmM to generate a four-membered library of folP translational strengths. […]
A selected addicted strain (e3.22#4) and the non-addicted control E. coli strain (e3.18CON) were then tested for benzoic acid dependent growth by cultivation in a microtiter plate reader in liquid 2xYT medium supplemented with spectinomycin and kanamycin and w/wo salicylic acid (0 or 5 mM). […]

[8] = system: E. coli XL1 with folP/glmM driven by pBAD promoter; test: L-arabinose-addiction regulated essential gene operon folP/glmM, cell growth (OD600); conditions: 37° C.
[9] = system: E. coli XL-1 with pBAD-TA5; test: L-arabinose-addiction yefM-yoeB TA system, cell growth (OD600)
Procedure: The yefM-yoeB TA pair was cloned into a plasmid (pBAD-TA5: araC, pBAD-yefM, pLac-yoeB, ampR) (Table 1) employing standard PCR cloning protocols (known in the art) and the plasmid was transformed into the host stain E. coli XL-1 with the genotype: recA1endA1 gyrA96 thi-1 hsdR17 supE44 relA1 lac[F′proAB lacIqZM15 Tn10 (TetR)]. Electroporation recovery of transformed cells was carried out in SOC medium (2% tryptone, 0.5% yeast extract, 10 mM NaCl, 2.5 mM KCl, 10 mM MgCl2, 10 mM MgSO4, and 20 mM glucose).
Transformed E. coli cultures were grown in 2xYT medium (10 g/L yeast extract, 16 g/L tryptone, 5 g/L NaCl). Antibiotics were added to select for maintenance of plasmids in strains transformed with these, according to their respective antibiotic resistance gene. Antibiotic concentrations when added were as follows: ampicillin 100 μg/mL, chloramphenicol 30 μg/mL, spectinomycin 50 μg/mL, kanamycin 50 μg/mL.
The expression of the yoeB gene in the yefM-yoeB TA pair construct (FIG. 2) was placed under the control of the Lac promoter, which is inducible by isopropyl β-D-1-thiogalactopyranoside (IPTG). Exposure of the cells to increasing concentrations of IPTG induced sufficient expression of the YoeB toxin to prevent growth, when the cells were grown in the absence of any source of L-arabinose (FIG. 3A). […]

[10] = system: E. coli XL1 with pBAT-TA5; test: TPP-responsive riboswitch-regulated TA system, cell growth (OD600); conditions: presence of inducer TPP (500 μM added to the growth medium)
Description: A TPP-responsive riboswitch (ThiMN15 #19) was engineered into the previously constructed L-arabinose-responsive TA-based correction system (pBAD-TA5 to yield pBAT-TA5). This TPP riboswitch functions as an “ON-type” when in the presence of its ligand TPP, and it is functional at the level of translation. The riboswitch was inserted into the DNA region of the pBAD-TA5 gene construct that encodes the 5′ untranslated region (UTR) of the antitoxin mRNA sequence (FIG. 17). For optimal functionality of the riboswitch, a protein-encoding sequence tet was also added as N-terminal fusion to YefM as it originated from the screen where ThiMN15#19 had been identified. An alternative TPP-responsive riboswitch was constructed, where an “OFF-type” riboswitch was inserted into the DNA region of the pBAD-TA5 gene construct that encodes the 5′-UTR of the toxin-encoding sequence to yield the same ligand-responsive growth.
An alternative TPP responsive-riboswitch-regulated TA correction system was engineered with a constitutive promoter driving expression of the riboswitch-yefM mRNA. From a selection of constitutive promoters (SEQ ID Nos.: 47-65, 89) of different strengths, the pBAD promoter of pBAT-TA5 was replaced and the resulting plasmids transformed into E. coli XL1. […]

Cc1cc(O)cc(=O)o1 [triacetic acid lactone]
effect on growth of control strain ([1]; 2xYT, 0, 2 and 20 mM triacetic acid lactone, 37 deg. C.): relative reduction in growth rate | concentration at which observed growth depression was greatest ([1]; gradient 0, 2 and 20 mM): 20000 µM | final cell yield of addicted strain ([2]; 2 mM triacetic acid lactone): increased | growth rate of addicted strain ([2]; 2 mM triacetic acid lactone): enhanced | final cell yield of addicted strain ([2]; 20 mM triacetic acid lactone): increased

CC(O)(CCO)CC(=O)O (stereo not drawn) [mevalonate]
effect on cell growth compared to cultures devoid of mevalonate [3]: increase in cell growth

O=C(O)c1ccccc1O [salicylic acid]
growth rate of addicted strain [4]: not reduced | effect on growth of control strain [5]: relative reduction in growth rate and final biomass yield

O=C(O)c1ccccc1 [benzoic acid]
effect on growth of control strain [6]: relative reduction in growth rate and final biomass yield | growth rate and final biomass yield of addicted strain [7]: enhanced

O=C[C@H](O)[C@@H](O)[C@@H](O)CO [L-arabinose]
cell growth ([8]; 2xYT supplemented with 0.0025% L-arabinose, 12-hour time course): completely failed to grow | cell growth ([8]; 2xYT supplemented with 0.25% L-arabinose): exponential | L-arabinose concentration sufficient to restore wild-type growth ([9]; co-addition with IPTG at concentrations up to 0.5 mM): 0.1%

CC(C)S[C@@H]1O[C@H](CO)[C@H](O)[C@H](O)[C@H]1O [IPTG, isopropyl β-D-1-thiogalactopyranoside]
IPTG (toxin inducer) concentration at which cell growth was strongly inhibited ([9]; no L-arabinose, yoeB toxin under pLac): ≥ 0.1 mM

Cc1ncc(C[n+]2csc(CCO[P@](=O)(O)OP(=O)(O)O)c2C)c(N)n1 [TPP, thiamine pyrophosphate]
effect on growth [10]: enhanced growth
